Assay results: patent US7598291B2, “Methods and compositions for enhancing collagen and proteoglycan synthesis in the skin” (priority 2004, dated 2009)

Assays:
[1] = topical application, hairless mice; reduced in the process to dihydrolipoic acid; cited from earlier work
lipid peroxidation = details: old rats, diet supplemented with lipoic acid; cited from earlier work
skin fibroblasts [2] = test: Collagen synthesis in vitro (radioproline incorporation) in skin fibroblasts; format: cell-based, human; details: lipoic acid 0 to 5 μg/ml (FIG. 5), proanthocyanidin vs control (FIG. 6)
Method: Rat skin fibroblasts and NIH 3T3 cells were used to measure collagen synthesis in vitro. Cells at a density of 100×10^3 in 24-well-plates were grown with 10% FBS/DMEM (Irvine Scientific, CA) supplemented with different doses of lipoic acid (0-16 μg/ml). Cells were incubated at 37° C. in a 5% CO2 environment for 24 hours. Medium was changed into labeling medium for another 24 hours (50 μCi/ml [^3H]proline, 25 μg/ml ascorbic acid, 25 μg/ml β-aminoproprionitrile (β-APN)). Collagen synthesis from cultured cells was assayed as previously described (B. Han et al. (2003), supra). Briefly, cells and medium were acidified with glacial acetic acid to a final concentration of 0.5 M and pepsin (Worthington) added to a final concentration of 0.5 mg/ml. Plates were shaken overnight at 4° C., collagen precipitated with 4.0 M NaCl and pellets washed with 20% cold ethanol 3 times. Pellets were dissolved with 0.5 M acetic acid and counted with a scintillation counter (Beckman)

rat hepatocytes = details: older rats, 2-week dietary supplementation prior to hepatocyte isolation; cited from earlier work
skin fibroblasts [3] = test: Cell proliferation assay (thymidine incorporation); format: cell-based, human; details: vs control; FIG. 6
Method: NIH 3T3 fibroblasts were cultured in DMEM containing 10% fetal bovine serum in 24-well plates at a density of 80×10^3. After overnight attachment, medium was changed to a conditioning medium with different dosages of lipoic acid (20 ng-20 μg). DNA content was assayed after 48 hours in culture. Briefly, cells were trypsinized with 0.25% trypsin-EDTA and pelleted by centrifugation. To the cell pellet, 1.5 ml of cold 10 mM EDTA (pH 12.3) was added to solubilize cells. After neutralizing with 1.0 M KH2PO4 (140 μl) and mixing with 0.5 ml of 100 mM NaCl/10 mM Tris (pH 7.0), 10 μl of 66.7 μg/ml Hoechst 33258 (Sigma) was added to give fluorescent readings at emissions of 350 nm and 450 nm. Cell numbers were obtained by comparing the reading to a standard curve of cellular DNA (1×10^4 to 1×10^6 fibroblast). [^3H]Thymidine incorporation into DNA was performed as previously described (B. Han et al., “Proanthocyanidin: A Natural Crosslinking Reagent for Stabilizing Collagen Matrices,” J. Biomed. Mater. Res. 65A: 118-24 (2003)).

O=C(O)CCCC[C@@H]1CCSS1 (racemic) [lipoic acid, 1,2-dithiolane-3-pentanoic acid]
penetration across the skin barrier [1]: effectively penetrate across the skin barrier

O=C(O)CCCC[C@@H]1CCSS1 (stereo in doubt) [lipoic acid, 1,2-dithiolane-3-pentanoic acid]
levels of malondialdehyde, an indicator of lipid peroxidation (lipid peroxidation): reduced
collagen synthesis in vitro (incorporation of radioproline) (skin fibroblasts [2]): increased
age-associated effects on ascorbic acid metabolism (rat hepatocytes): almost completely reversed

proanthocyanidin
collagen synthesis in vitro (incorporation of radioproline) (skin fibroblasts [2]): increased
cellular proliferation (incorporation of thymidine) (skin fibroblasts [3]): increase in cellular proliferation
